From publication PMC5802374 (Cell, 2018)
Several values for one entry are separate records, joined by “and”; a condition that tells them apart may be missing. Identical values can stand only once. Like-named read-outs stand apart in the source and are kept apart here.

Key:
MOP [1] = biological target: T1, MOP (Homo sapiens, UniProt P35372); assay: Bias factor towards G protein in MOP; assay type: cell-based; settings: GTPγ[35S] vs BRET arrestin recruitment; DAMGO as reference agonist
MOP [2] = biological target: T1, MOP; assay: cAMP inhibition assay; assay type: cell-based; settings: N = 3
KOP [3] = biological target: T2, KOP (Homo sapiens, UniProt P41145); assay type: cell-based
MOP [4] = biological target: T1, MOP; settings: N = 3
KOP wt [5] = biological target: T3, KOP wt (Homo sapiens, UniProt P41145); settings: N = 3
KOP [6] = biological target: T2, KOP; assay type: cell-based; remark: listed apart in the source
MOP [7] = biological target: T1, MOP; assay: cell-based
KOP wt [8] = biological target: T3, KOP wt; assay: cell-based
MOP [9] = biological target: T1, MOP; assay: biochemical
KOP [10] = biological target: T2, KOP; assay: biochemical
KOP [11] = biological target: T2, KOP
MOP [12] = biological target: T1, MOP
KOP [13] = assay: Radioligand; assay type: binding, human; settings: agonist U69,593; KOP+Nb39 vs KOP only
[14] = biological target: human kappa-opioid receptor (KOP) containing C-terminal Renilla luciferase (RLuc8) (human, UniProt P41145); assay: FRET or BRET
Chain of human kappa-opioid receptor (KOP) containing C-terminal Renilla luciferase (RLuc8) (P41145 whole entry): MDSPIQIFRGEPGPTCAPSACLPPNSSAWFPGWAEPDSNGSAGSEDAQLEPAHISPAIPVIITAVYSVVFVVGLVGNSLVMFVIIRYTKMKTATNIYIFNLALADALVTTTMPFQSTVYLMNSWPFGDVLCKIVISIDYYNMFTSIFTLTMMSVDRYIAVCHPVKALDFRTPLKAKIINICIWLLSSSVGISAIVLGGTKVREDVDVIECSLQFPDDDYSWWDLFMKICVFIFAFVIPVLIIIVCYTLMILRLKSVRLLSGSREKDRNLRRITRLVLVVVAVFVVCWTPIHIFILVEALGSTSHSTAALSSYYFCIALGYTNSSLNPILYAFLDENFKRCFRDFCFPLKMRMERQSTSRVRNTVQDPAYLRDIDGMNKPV

T1 sequence (P35372 whole entry): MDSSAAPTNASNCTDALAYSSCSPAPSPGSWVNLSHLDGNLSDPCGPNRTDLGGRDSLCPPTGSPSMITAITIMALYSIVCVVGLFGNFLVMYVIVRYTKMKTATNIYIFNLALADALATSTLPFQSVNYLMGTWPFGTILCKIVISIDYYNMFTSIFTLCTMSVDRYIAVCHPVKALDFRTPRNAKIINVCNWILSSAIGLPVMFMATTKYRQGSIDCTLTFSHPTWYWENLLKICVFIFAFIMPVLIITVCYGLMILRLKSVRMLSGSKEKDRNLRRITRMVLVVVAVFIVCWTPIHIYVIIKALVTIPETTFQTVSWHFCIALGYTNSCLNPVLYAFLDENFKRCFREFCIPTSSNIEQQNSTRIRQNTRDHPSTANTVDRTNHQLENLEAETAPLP
T3 sequence (P41145 whole entry): as the sequence (P41145 whole entry) above
T2 sequence (P41145 whole entry): as above

## O=C(N[C@@H]1CC[C@@]2(O)[C@H]3Cc4ccc(O)c5c4[C@@]2(CCN3CC2CC2)[C@H]1O5)c1cccc(I)c1 [IBNtxA]
MOP [1]
  Bias factor towards G protein in MOP, 10^ΔΔLog(τ/KA): 9
MOP [2]
  Emax Gi activation (cAMP inhibition) in MOP: 99±6
MOP [2]; read-out: EC50 Gi activation (cAMP inhibition) in MOP
  EC50: 0.056 ± 0.012 nM
KOP [3]
  Emax Gi activation (cAMP inhibition) in KOP: 96±1
KOP [3]; read-out: EC50 Gi activation (cAMP inhibition) in KOP
  EC50: 0.002 ± 0.001 nM
MOP [4]
  Emax arrestin recruitment (Tango) in MOP: 25±6 and 23±4
MOP [4]; read-out: EC50 arrestin recruitment (Tango) in MOP
  EC50: 0.075 nM and 0.1 nM
KOP wt [5]; Figure 5D, comparison with Y312^7.35W
  Emax arrestin recruitment in KOP wt, Figure 5D: 112±10
KOP wt [5]; method: normalized to % SalA stimulation
  Emax arrestin recruitment (Tango) in KOP wt: 95±8 and 113±12
KOP wt [5]; read-out: EC50 arrestin recruitment (Tango) in KOP wt
  EC50: 0.032 ± 0.01 nM

## CC(C)[C@@H](CN1CC[C@@](C)(c2cccc(O)c2)[C@@H](C)C1)NC(=O)[C@H]1Cc2ccc(O)cc2CN1 [JDTic]
KOP [6]
  Nb39 recruitment to KOP (in words): no effect

## C=CCN1CC[C@]23c4c5ccc(O)c4OC2[C@H](NC(=O)c2ccc(F)c(I)c2)CC[C@@]3(O)C1C5 (stereo partly drawn) [MP903, N-((4aS,7R,12bS)-3-allyl-4a,9-dihydroxy-2,3,4,4a,5,6,7,7a-octahydro-1H-4,12-methanobenzofuro[3,2-e]isoquinolin-7-yl)-4-fluoro-3-iodobenzamide]
MOP [7]
  EC50: 0.12 ± 0.05 nM
MOP [7]; read-out: Emax arrestin recruitment (Tango) in MOP
  Emax: 33 ± 5%
KOP wt [8]
  EC50: 0.074 ± 0.012 nM
KOP wt [8]; read-out: Emax arrestin recruitment (Tango) in KOP wt
  Emax: 108 ± 10%

## O=C(N[C@@H]1C=CC2C3Cc4ccc(O)c5c4[C@@]2(CCN3CC2CC2)C1O5)c1ccccc1 (stereo partly drawn) [MP1108, N-((7R,12bS)-3-(cyclopropylmethyl)-9-hydroxy-2,3,4,4a,7,7a-hexahydro-1H-4,12-methanobenzofuro[3,2-e]isoquinolin-7-yl)benzamide]
MOP [9]
  Ki: 0.42 ± 0.06 nM
KOP [10]
  Ki: 0.42 ± 0.05 nM

## O=C(N[C@@H]1C=CC2C3Cc4ccc(O)c5c4[C@@]2(CCN3CC2CC2)C1O5)c1cccc(Cl)c1 (stereo partly drawn) [MP1109, 3-Chloro-N-((7R,12bS)-3-(cyclopropylmethyl)-9-hydroxy-2,3,4,4a,7,7a-hexahydro-1H-4,12-methanobenzofuro[3,2-e]isoquinolin-7-yl)benzamide]
MOP [9]
  Ki: 0.16 ± 0.05 nM
KOP [10]
  Ki: 0.13 ± 0.03 nM

## O=C(N[C@@H]1C=CC2C3Cc4ccc(O)c5c4[C@@]2(CCN3CC2CC2)C1O5)c1cccc(Br)c1 (stereo partly drawn) [MP1110, 3-Bromo-N-((7R,12bS)-3-(cyclopropylmethyl)-9-hydroxy-2,3,4,4a,7,7a-hexahydro-1H-4,12-methanobenzofuro[3,2-e]isoquinolin-7-yl)benzamide]
MOP [9]
  Ki: 0.18 ± 0.04 nM
KOP [10]
  Ki: 0.12 ± 0.04 nM

## O=C(N[C@@H]1C=CC2C3Cc4ccc(O)c5c4[C@@]2(CCN3CC2CC2)C1O5)c1ccccc1I (stereo partly drawn) [MP1111, N-((7R,12bS)-3-(cyclopropylmethyl)-9-hydroxy-2,3,4,4a,7,7a-hexahydro-1H-4,12-methanobenzofuro[3,2-e]isoquinolin-7-yl)-2-iodobenzamide]
MOP [9]
  Ki: 0.2 ± 0.05 nM
KOP [10]
  Ki: 0.27 ± 0.06 nM

## O=C(N[C@@H]1C=CC2C3Cc4ccc(O)c5c4[C@@]2(CCN3CC2CC2)C1O5)c1ccc(I)cc1 (stereo partly drawn) [MP1112, N-((7R,12bS)-3-(cyclopropylmethyl)-9-hydroxy-2,3,4,4a,7,7a-hexahydro-1H-4,12-methanobenzofuro[3,2-e]isoquinolin-7-yl)-4-iodobenzamide]
MOP [9]
  Ki: 0.17 ± 0.03 nM
KOP [10]
  Ki: 0.12 ± 0.03 nM

## O=C(N[C@@H]1C=CC2C3Cc4ccc(O)c5c4[C@@]2(CCN3CC2CC2)C1O5)c1cccc(C(F)(F)F)c1 (stereo partly drawn) [MP1113, N-((7R,12bS)-3-(cyclopropylmethyl)-9-hydroxy-2,3,4,4a,7,7a-hexahydro-1H-4,12-methanobenzofuro[3,2-e]isoquinolin-7-yl)-3-(trifluoromethyl)benzamide]
MOP [9]
  Ki: 0.24 ± 0.06 nM
KOP [10]
  Ki: 0.14 ± 0.07 nM

## O=C(N[C@@H]1C=CC2C3Cc4ccc(O)c5c4[C@@]2(CCN3CC2CC2)C1O5)c1cccc(F)c1 (stereo partly drawn) [MP1114, N-((7R,12bS)-3-(cyclopropylmethyl)-9-hydroxy-2,3,4,4a,7,7a-hexahydro-1H-4,12-methanobenzofuro[3,2-e]isoquinolin-7-yl)-3-fluorobenzamide]
MOP [9]
  Ki: 0.27 ± 0.08 nM
KOP [10]
  Ki: 0.16 ± 0.07 nM

## Cc1cccc(C(=O)N[C@@H]2C=CC3C4Cc5ccc(O)c6c5[C@@]3(CCN4CC3CC3)C2O6)c1 (stereo partly drawn) [MP1115, N-((7R,12bS)-3-(cyclopropylmethyl)-9-hydroxy-2,3,4,4a,7,7a-hexahydro-1H-4,12-methanobenzofuro[3,2-e]isoquinolin-7-yl)-3-methylbenzamide]
MOP [9]
  Ki: 0.25 ± 0.06 nM
KOP [10]
  Ki: 0.18 ± 0.08 nM

## CN(C(=O)/C=C/c1ccoc1)[C@@H]1CC[C@@]2(O)[C@H]3Cc4ccc(O)c5c4[C@@]2(CCN3CC2CC2)[C@H]1O5 [Nalfurafine, reference compound]
MOP [9]
  Ki: 4.2 ± 0.21 nM

## CN(C(=O)/C=C/c1ccoc1)[C@@H]1CC[C@@]2(O)[C@H]3Cc4cccc5c4[C@@]2(CCN3CC2CC2)[C@H]1O5 [compound 18]
KOP [11]
  Ki: 1.5 ± 0.05 nM
MOP [12]
  Ki: 533 ± 65 nM

B1: Nb39 containing a C-terminal YFP (VHH)
VHH: QVQLVESGGGLVRPGGSLRLSCVDSERTSYPMGWFRRAPGKEREFVASITWSGIDPTYADSVADRFTTSRDVANNTLYLQMNSLKHEDTAVYYCAARAPVGQSSSPYDYDYWGQGTQVTVSS
KOP [13]
  Attenuation of agonist dissociation rate at KOP: approximately 6 fold
[14]
  EC50 of the agonist MP1104 for recruitment of Nb39 to KOP (BRET): 0.12 ± 0.02 nM
  EC50 of the agonist SalA for recruitment of Nb39 to KOP (BRET): 11.3 nM and 11.2 nM and 10.2 nM
  EC50 of the agonist U69,593 for recruitment of Nb39 to KOP (BRET): 3.78 ± 0.04 nM
  EC50 of the partial agonist diprenorphine for recruitment of Nb39 to KOP (BRET): 5.2 ± 0.03 nM
